Source: paper PMC8557913, “Characterization of Phosphopantetheinyl Hydrolase from Mycobacterium tuberculosis” (Microbiology Spectrum, 2021)

How the values were obtained:
[1] = molecular target: PptH (Rv2795c) (Mycobacterium tuberculosis, UniProt I6YEE1); assay: biochemical
[2] = molecular target: T1, Sfp (Bacillus subtilis, UniProt P39135); assay: transfer of biotin-labelled Ppt to apo-carrier protein, streptavidin blot; format: biochemical; conditions: labelled compound; co-substrate apo-AcpM (also PKS13 ACP, EcEntB, EcACP, KpACP, PaACP); 50 mM Tris-HCl pH 7.5, 15 mM MgCl2, 37°C
T1 sequence (P39135 1-224): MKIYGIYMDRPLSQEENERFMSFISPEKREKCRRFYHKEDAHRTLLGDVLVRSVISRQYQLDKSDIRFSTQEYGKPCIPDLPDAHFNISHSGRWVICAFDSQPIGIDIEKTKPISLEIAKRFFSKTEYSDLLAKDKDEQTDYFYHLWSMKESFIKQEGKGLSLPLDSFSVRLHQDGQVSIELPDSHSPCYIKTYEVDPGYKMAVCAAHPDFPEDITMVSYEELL

PptH (Rv2795c), sequence (I6YEE1 1-310): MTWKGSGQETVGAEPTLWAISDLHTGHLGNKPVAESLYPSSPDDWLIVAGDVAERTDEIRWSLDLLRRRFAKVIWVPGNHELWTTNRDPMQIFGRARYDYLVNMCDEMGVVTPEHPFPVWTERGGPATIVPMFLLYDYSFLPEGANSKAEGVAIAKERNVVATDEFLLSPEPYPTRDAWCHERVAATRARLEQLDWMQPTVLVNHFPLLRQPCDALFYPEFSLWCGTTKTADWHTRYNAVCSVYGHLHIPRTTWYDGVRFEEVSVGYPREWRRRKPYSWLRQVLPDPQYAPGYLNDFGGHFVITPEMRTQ

Compound | IC50 [1] [µM] | transfer of biotin-labelled Ppt to apo-carrier protein, streptavidin blot [2]
Nc1ncnc2c1ncn2[C@@H]1O[C@H](COP(=O)(O)O)[C@@H](O)[C@H]1O [AMP] | 456 | 
CC(C)(COP(=O)(O)OP(=O)(O)OC[C@H]1O[C@@H](n2cnc3c(N)ncnc32)[C@H](O)[C@@H]1OP(=O)(O)O)[C@@H](O)C(=O)NCCC(=O)NCCSCC(=O)NCCOCCOCCNC(=O)CCCC[C@@H]1SC[C@@H]2NC(=O)N[C@@H]21 [biotin-PEG-ACM-CoA] |  | Upon incubation of the *CoA probe with apo-AcpM and Sfp
